US9302999B2, “Substituted triazoles as herbicides” (E. I. DU PONT DE NEMOURS AND COMPANY, priority 2012, dated 2016)

Key:
Type in all cases: in vivo
[1] = test system: nightshade (eastern black nightshade, Solanum ptycanthum); experiment: Test C pre-/postemergence: nightshade; conditions: Preemergence
Outline: (§1)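 Preemergence on seeds in loam/sand, postemergence on 2–18 cm (1–4-leaf) plants in peat-based medium; compounds in non-phytotoxic solvent with surfactant. After 13–15 days in greenhouse, visual rating versus controls, 0 (no effect) to 100 (complete control).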

[2] = test system: barley (winter barley, Hordeum vulgare); experiment: Test C postemergence: barley
Outline: (§2)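 Crop and weed plants were grown in peat-vermiculite medium and treated postemergence at the 1- to 4-leaf stage (2-18 cm tall). After 13-15 days in a greenhouse, each species was rated visually against untreated controls on a 0-100 scale (0 no effect, 100 complete control).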

[3] = test system: foxtail, green (green foxtail, Setaria viridis); experiment: Test C pre-/postemergence: foxtail, green
Outline: as §1

[4] = test system: surinam grass (Brachiaria decumbens); experiment: Test C pre-/postemergence: surinam grass
Outline: as §1

[5] = test system: goosegrass (Eleusine indica); experiment: Test C pre-/postemergence: goosegrass
Outline: as §1

[6] = test system: windgrass (Apera spica-venti); experiment: Test C postemergence: windgrass
Outline: as §2

[7] = test system: bromegrass, downy (downy bromegrass, Bromus tectorum); experiment: Test C pre-/postemergence: bromegrass, downy
Outline: as §1

[8] = test system: canarygrass (Phalaris minor); experiment: Test C postemergence: canarygrass
Outline: as §2

[9] = test system: cocklebur (common cocklebur, Xanthium strumarium); experiment: Test C pre-/postemergence: cocklebur
Outline: as §1

[10] = test system: deadnettle (henbit deadnettle, Lamium amplexicaule); experiment: Test C postemergence: deadnettle
Outline: as §2

[11] = 31 g ai/ha, scale of 0 to 100, 0 is no effect, 100 is complete control
[12] = 62 g ai/ha, scale of 0 to 100, 0 is no effect, 100 is complete control
[13] = 125 g ai/ha, scale 0 to 100, 0 no effect, 100 complete control
[14] = 250 g ai/ha, scale 0 to 100, 0 no effect, 100 complete control
[15] = 31 g ai/ha, scale 0 to 100 (0 no effect, 100 complete control)
[16] = 62 g ai/ha, scale 0 to 100 (0 no effect, 100 complete control)
[17] = Postemergence, 31 g ai/ha, scale 0 to 100 (0 no effect, 100 complete control)
[18] = Postemergence, 62 g ai/ha, scale 0 to 100 (0 no effect, 100 complete control)
[19] = Postemergence, 125 g ai/ha, scale 0 to 100, 0 no effect, 100 complete control
[20] = Postemergence, 250 g ai/ha, scale 0 to 100
[21] = Preemergence, 31 g ai/ha, scale of 0 to 100, 0 is no effect, 100 is complete control
[22] = Preemergence, 62 g ai/ha, scale of 0 to 100, 0 is no effect, 100 is complete control
[23] = Preemergence, 125 g ai/ha, scale 0 to 100, 0 no effect, 100 complete control
[24] = Preemergence, 250 g ai/ha, scale 0 to 100, 0 no effect, 100 complete control
[25] = Preemergence, 62 g ai/ha, scale 0 to 100, 0 no effect, 100 complete control

SMILES: Cc1nn(-c2ccc(C(F)(F)F)cc2)nc1Oc1ccnc(C(F)(F)F)c1 [Compound 120]
- Plant response rating, Nightshade [1, 11]: 95
- Plant response rating, Nightshade [1, 12]: 95
- Plant response rating, Nightshade [1, 13]: 95
- Plant response rating, Nightshade [1, 14]: 95
- Plant response rating, Barley [2, 15]: 20
- Plant response rating, Barley [2, 16]: 30
- Plant response rating, Barley [2, 13]: 40
- Plant response rating, Barley ([2]; 250 g ai/ha, scale 0 to 100): 55
- Plant response rating, Foxtail, Green [3, 17]: 15
- Plant response rating, Foxtail, Green [3, 18]: 85
- Plant response rating, Foxtail, Green [3, 19]: 100
- Plant response rating, Foxtail, Green [3, 20]: 100
- Plant response rating, Foxtail, Green [3, 21]: 90
- Plant response rating, Foxtail, Green [3, 22]: 90
- Plant response rating, Foxtail, Green [3, 23]: 90
- Plant response rating, Foxtail, Green [3, 24]: 90
- Plant response rating, Surinam Grass [4, 17]: 5
- Plant response rating, Surinam Grass [4, 18]: 5
- Plant response rating, Surinam Grass [4, 19]: 20
- Plant response rating, Surinam Grass [4, 20]: 20
- Plant response rating, Surinam Grass [4, 21]: 65
- Plant response rating, Surinam Grass [4, 22]: 95
- Plant response rating, Surinam Grass [4, 23]: 98
- Plant response rating, Surinam Grass [4, 24]: 100
- Plant response rating, Goosegrass [5, 17]: 5
- Plant response rating, Goosegrass [5, 18]: 5
- Plant response rating, Goosegrass [5, 19]: 10
- Plant response rating, Goosegrass [5, 20]: 45
- Plant response rating, Goosegrass [5, 21]: 98
- Plant response rating, Goosegrass [5, 22]: 98
- Plant response rating, Goosegrass [5, 23]: 98
- Plant response rating, Goosegrass [5, 24]: 98
- Plant response rating, Windgrass [6, 15]: 50
- Plant response rating, Windgrass [6, 16]: 55
- Plant response rating, Windgrass [6, 13]: 90
- Plant response rating, Bromegrass, Downy [7, 17]: 15
- Plant response rating, Bromegrass, Downy [7, 18]: 15
- Plant response rating, Bromegrass, Downy [7, 19]: 30
- Plant response rating, Bromegrass, Downy [7, 21]: 45
- Plant response rating, Bromegrass, Downy [7, 25]: 85
- Plant response rating, Bromegrass, Downy [7, 23]: 90
- Plant response rating, Bromegrass, Downy [7, 24]: 90
- Plant response rating, Canarygrass [8, 15]: 25
- Plant response rating, Canarygrass [8, 16]: 35
- Plant response rating, Canarygrass [8, 13]: 60
- Plant response rating, Canarygrass ([8]; 250 g ai/ha, scale 0 to 100): 90
- Plant response rating, Cocklebur [9, 17]: 45
- Plant response rating, Cocklebur [9, 18]: 50
- Plant response rating, Cocklebur [9, 19]: 65
- Plant response rating, Cocklebur [9, 20]: 65
- Plant response rating, Cocklebur [9, 21]: 0
- Plant response rating, Cocklebur [9, 25]: 0
- Plant response rating, Cocklebur [9, 24]: 5
- Plant response rating, Deadnettle [10, 15]: 100
- Plant response rating, Deadnettle [10, 16]: 100
- Plant response rating, Deadnettle [10, 13]: 100
- Plant response rating, Deadnettle ([10]; 250 g ai/ha, scale 0 to 100): 100

SMILES: Cc1nn(-c2ccc(C(F)(F)F)cn2)nc1Cc1cccc(C(F)(F)F)c1 [Compound 106]
- Plant response rating, Nightshade [1, 11]: 0
- Plant response rating, Nightshade [1, 12]: 75
- Plant response rating, Nightshade [1, 13]: 90
- Plant response rating, Nightshade [1, 14]: 100
- Plant response rating, Barley [2, 15]: 15
- Plant response rating, Barley [2, 16]: 25
- Plant response rating, Barley [2, 13]: 35
- Plant response rating, Barley ([2]; 250 g ai/ha, scale 0 to 100): 40
- Plant response rating, Foxtail, Green [3, 17]: 50
- Plant response rating, Foxtail, Green [3, 18]: 50
- Plant response rating, Foxtail, Green [3, 19]: 70
- Plant response rating, Foxtail, Green [3, 20]: 85
- Plant response rating, Foxtail, Green [3, 21]: 90
- Plant response rating, Foxtail, Green [3, 22]: 95
- Plant response rating, Foxtail, Green [3, 23]: 95
- Plant response rating, Foxtail, Green [3, 24]: 95
- Plant response rating, Surinam Grass [4, 17]: 20
- Plant response rating, Surinam Grass [4, 18]: 25
- Plant response rating, Surinam Grass [4, 19]: 35
- Plant response rating, Surinam Grass [4, 20]: 40
- Plant response rating, Surinam Grass [4, 21]: 5
- Plant response rating, Surinam Grass [4, 22]: 20
- Plant response rating, Surinam Grass [4, 23]: 80
- Plant response rating, Surinam Grass [4, 24]: 90
- Plant response rating, Goosegrass [5, 17]: 10
- Plant response rating, Goosegrass [5, 18]: 35
- Plant response rating, Goosegrass [5, 19]: 45
- Plant response rating, Goosegrass [5, 20]: 55
- Plant response rating, Goosegrass [5, 21]: 80
- Plant response rating, Goosegrass [5, 22]: 98
- Plant response rating, Goosegrass [5, 23]: 98
- Plant response rating, Goosegrass [5, 24]: 100
- Plant response rating, Windgrass [6, 15]: 50
- Plant response rating, Windgrass [6, 16]: 65
- Plant response rating, Windgrass [6, 13]: 80
- Plant response rating, Windgrass ([6]; 250 g ai/ha, scale 0 to 100): 85
- Plant response rating, Bromegrass, Downy [7, 17]: 30
- Plant response rating, Bromegrass, Downy [7, 18]: 35
- Plant response rating, Bromegrass, Downy [7, 19]: 40
- Plant response rating, Bromegrass, Downy [7, 20]: 40
- Plant response rating, Bromegrass, Downy [7, 21]: 0
- Plant response rating, Bromegrass, Downy [7, 25]: 5
- Plant response rating, Bromegrass, Downy [7, 23]: 40
- Plant response rating, Bromegrass, Downy [7, 24]: 60
- Plant response rating, Canarygrass [8, 15]: 35
- Plant response rating, Canarygrass [8, 16]: 50
- Plant response rating, Canarygrass [8, 13]: 70
- Plant response rating, Canarygrass ([8]; 250 g ai/ha, scale 0 to 100): 80
- Plant response rating, Cocklebur [9, 17]: 35
- Plant response rating, Cocklebur [9, 18]: 35
- Plant response rating, Cocklebur [9, 19]: 40
- Plant response rating, Cocklebur [9, 20]: 55
- Plant response rating, Deadnettle [10, 15]: 75
- Plant response rating, Deadnettle [10, 16]: 80
- Plant response rating, Deadnettle [10, 13]: 90
- Plant response rating, Deadnettle ([10]; 250 g ai/ha, scale 0 to 100): 90
